# Measurements published in PubChem BioAssay (NCI).
#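 Following 48 hours of exposure in 96-well plates, responses at five concentrations were used to interpolate endpoints linearly. GI50 marks 50% less growth. TGI denotes the concentration required for complete inhibition of growth.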
# Tests used:
# Assay in all cases: NCI anticancer screen, dose series, 48 h
# [1] = system: 786-0 renal
# [2] = system: A498 renal
# [3] = system: A549 NSCLC
# [4] = system: ACHN renal
# [5] = system: BT-549 breast
# [6] = system: CAKI-1 renal
# [7] = system: CCRF-CEM leukemia
# [8] = system: COLO 205 colon
# [9] = system: DU-145 prostate
# [10] = system: EKVX NSCLC
# [11] = system: HCC-2998 colon
# [12] = system: HL-60(TB) leukemia
# [13] = system: HOP-62 NSCLC
# [14] = system: HOP-92 NSCLC
# [15] = system: HS 578T breast
# [16] = system: HT29 colon
# [17] = system: IGROV1 ovarian
# [18] = system: K-562 leukemia
# [19] = system: KM12 colon
# [20] = system: LOX IMVI melanoma
# [21] = system: M14 melanoma
# [22] = system: MALME-3M melanoma
# [23] = system: MDA-MB-231 breast
# [24] = system: MDA-MB-435
# [25] = system: MOLT-4 leukemia
# [26] = system: NCI-H226 lung
# [27] = system: NCI-H23 lung
# [28] = system: NCI-H460 lung
# [29] = system: NCI-H522 lung
# [30] = system: NCI/ADR-RES ovarian
# [31] = system: OVCAR-4 ovarian
# [32] = system: OVCAR-5 ovarian
# [33] = system: OVCAR-8 ovarian
# [34] = system: PC-3 prostate
# [35] = system: RPMI-8226 leukemia
# [36] = system: RXF 393 renal
# [37] = system: SF-268 CNS
# [38] = system: SF-295 CNS
# [39] = system: SF-539 CNS
# [40] = system: SK-MEL-2 melanoma
# [41] = system: SK-MEL-28 melanoma
# [42] = system: SK-MEL-5 melanoma
# [43] = system: SK-OV-3 ovarian
# [44] = system: SN12C renal
# [45] = system: SNB-19 CNS
# [46] = system: SNB-75 CNS
# [47] = system: SR leukemia
# [48] = system: SW-620 colon
# [49] = system: TK-10 renal
# [50] = system: U251 CNS
# [51] = system: UACC-257 melanoma
# [52] = system: UACC-62 melanoma
# [53] = system: UO-31 renal
structure (smiles),measurement,setting,value
CCN(CC)c1ccc2c(c1)Oc1nc(N)c(C#N)c(N)c1C2Sc1ccc(C)cc1 (stereo unspecified),GI50,[1],1880 nM
same,TGI,[1],3450 nM
same,GI50,[2],1890 nM
same,TGI,[2],3300 nM
same,GI50,[3],1930 nM
same,TGI,[3],3840 nM
same,GI50,[4],1580 nM
same,TGI,[4],2930 nM
same,GI50,[5],1160 nM
same,TGI,[5],2500 nM
same,GI50,[6],1460 nM
same,TGI,[6],2780 nM
same,GI50,[7],366 nM
same,TGI,[7],2110 nM
same,GI50,[8],1810 nM
same,TGI,[8],3490 nM
same,GI50,[9],1800 nM
same,TGI,[9],3210 nM
same,GI50,[10],605 nM
same,TGI,[10],2050 nM
same,GI50,[11],1780 nM
same,TGI,[11],3320 nM
same,GI50,[12],564 nM
same,TGI,[12],3140 nM
same,GI50,[13],1760 nM
same,TGI,[13],3290 nM
same,GI50,[14],1310 nM
same,TGI,[14],2600 nM
same,GI50,[15],1590 nM
same,TGI,[15],4570 nM
same,GI50,[16],1840 nM
same,TGI,[16],3410 nM
same,GI50,[17],1090 nM
same,TGI,[17],2360 nM
same,GI50,[18],2300 nM
same,TGI,[18],> 100000 nM
same,GI50,[19],1050 nM
same,TGI,[19],2280 nM
same,GI50,[20],320 nM
same,TGI,[20],1060 nM
same,GI50,[21],1570 nM
same,TGI,[21],3220 nM
same,GI50,[22],1680 nM
same,TGI,[22],3060 nM
same,GI50,[23],1450 nM
same,TGI,[23],2810 nM
same,GI50,[24],1250 nM
same,TGI,[24],2540 nM
same,GI50,[25],824 nM
same,TGI,[25],4300 nM
same,GI50,[26],2010 nM
same,TGI,[26],4620 nM
same,GI50,[27],1260 nM
same,TGI,[27],2640 nM
same,GI50,[28],1390 nM
same,TGI,[28],3020 nM
same,GI50,[29],1750 nM
same,TGI,[29],3170 nM
same,GI50,[30],2190 nM
same,TGI,[30],5040 nM
same,GI50,[31],1750 nM
same,TGI,[31],3180 nM
same,GI50,[32],1710 nM
same,TGI,[32],3120 nM
same,GI50,[33],1510 nM
same,TGI,[33],3080 nM
same,GI50,[34],1260 nM
same,TGI,[34],2600 nM
same,GI50,[35],1900 nM
same,TGI,[35],5610 nM
same,GI50,[36],1770 nM
same,TGI,[36],3220 nM
same,GI50,[37],1670 nM
same,TGI,[37],3250 nM
same,GI50,[38],1750 nM
same,TGI,[38],3190 nM
same,GI50,[39],1600 nM
same,TGI,[39],2960 nM
same,GI50,[40],1720 nM
same,TGI,[40],3120 nM
same,GI50,[41],1700 nM
same,TGI,[41],3090 nM
same,GI50,[42],1760 nM
same,TGI,[42],3150 nM
same,GI50,[43],1940 nM
same,TGI,[43],3470 nM
same,GI50,[44],1680 nM
same,TGI,[44],3150 nM
same,GI50,[45],1360 nM
same,TGI,[45],2670 nM
same,GI50,[46],1340 nM
same,TGI,[46],2630 nM
same,GI50,[47],261 nM
same,TGI,[47],834 nM
same,GI50,[48],1500 nM
same,TGI,[48],3210 nM
same,GI50,[49],2960 nM
same,TGI,[49],4480 nM
same,GI50,[50],1200 nM
same,TGI,[50],2740 nM
same,GI50,[51],1850 nM
same,TGI,[51],3390 nM
same,GI50,[52],1670 nM
same,TGI,[52],3070 nM
same,GI50,[53],1350 nM
same,TGI,[53],2630 nM
